# pIC50: −log10 of the molar value.
# How the values were obtained:
# AR 1.0 cells [1] = assay: Drug accumulation assay: daunorubicin accumulation in AR 1.0 cells; format: cell-based; settings: Mus musculus, 100% = accumulation with verapamil 100 μM, 1 hr, 37° C.
# Protocol: (§1) The EMT6 mouse mammary carcinoma cell line and the MDR resistant subline AR 1.0 were cultured in RPMI 1640 medium containing 10% foetal calf serum and 2 mM glutamine at 37° C. in 5% CO2. Cells were passaged between 1 in 200 and 1 in 2000 in the case of the parental cell line and between 1 in 20 and 1 in 200 in the case of the MDR resistant subline, after trypsinisation (0.25% trypsin, 0.2 gl^-1, EDTA).
# AR 1.0 cells were seeded 48 hours prior to assay into 96 well opaque culture plates (Canberra Packard).
# AR 1.0 cells [2] = assay: Potentiation index with doxorubicin titration; format: cell-based, mouse; settings: for Potentiation Index at RMA concentration 10 nM: Table C1, RMA 10 nM; for Potentiation Index at RMA concentration 30 nM: Table C1, RMA 30 nM; for Potentiation Index at RMA concentration 50 nM: Table C1, RMA 50 nM; for Potentiation Index at RMA concentration 100 nM: Table C1, RMA 100 nM; for Potentiation Index at RMA concentration 20 nM: Table C1, RMA 20 nM
# Protocol: as §1, with “EDTA). […]” for “EDTA).”
# (b) Cells were cultured for four days with a titration of doxorubicin (0.263 nM-17.24 μM) in the presence of a fixed concentration of each compound. Proliferation was quantified as described by Skehen et al, loc cit. The IC50 (concentration required to reduce proliferation to 50% of the untreated controls) for doxorubicin alone and with each compound were derived and used to calculate the potentiation index (PI): [formula]
SMILES,pIC50 (AR 1.0 cells [1]),"Potentiation Index at RMA concentration 300 nM (AR 1.0 cells [2]; Table C2, RMA 300 nM)","Potentiation Index at RMA concentration 500 nM (AR 1.0 cells [2]; Table C2, RMA 500 nM)",Potentiation Index at RMA concentration 10 nM (AR 1.0 cells [2]),Potentiation Index at RMA concentration 30 nM (AR 1.0 cells [2]),Potentiation Index at RMA concentration 50 nM (AR 1.0 cells [2]),Potentiation Index at RMA concentration 100 nM (AR 1.0 cells [2]),Potentiation Index at RMA concentration 20 nM (AR 1.0 cells [2])
"COc1cc2c(cc1OC)CN(CCNC(=O)c1ccccc1NC(=O)c1ccc(-c3ccccc3)cc1)CC2 [compound 9294, Biphenyl-4-carboxylic acid {2-[2-(6,7-dimethoxy-3,4-dihydro-1H-isoquinolin-2-yl)-ethylcarbamoyl]-phenyl}-amide]",6.40,18,71,–,–,–,–,–
"COc1cc2c(cc1OC)CN(CCc1ccc(NC(=O)c3cc(N(C)C)ccc3NC(=O)c3cnc4ccccc4c3)cc1)CC2 [compound 9595, Quinoline-3-carboxylic acid (2-{4-[2-(6,7-dimethoxy-3,4-dihydro-1H-isoquinolin-2-yl)-ethyl]-phenylcarbamoyl}-4-dimethylamino-phenyl)-amide]",6.43,–,–,1.45,1.93,2.99,45,–
"COc1cc2c(cc1OC)CN(CCc1ccc(NC(=O)c3cccnc3NC(=O)c3cnc4ccccc4n3)cc1)CC2 [compound 9600, Quinoxaline-2-carboxylic acid (3-{4-[2-(6,7-dimethoxy-3,4-dihydro-1H-isoquinolin-2-yl)-ethyl]-phenylcarbamoyl}-pyridin-2-yl)-amide]",6.70,–,–,–,–,1.98,2.55,–
"COc1cc2c(cc1OC)CN(CCc1ccc(NC(=O)c3cc(SC)ccc3NC(=O)c3cnc4ccccc4c3)cc1)CC2 [compound 9615, Quinoline-3-carboxylic acid (2-{4-[2-(6,7-dimethoxy-3,4-dihydro-1H-isoquinolin-2-yl)-ethyl]-phenylcarbamoyl}-4-methylsulfanyl-phenyl)-amide]",6.67,–,–,2,23,85,175,–
"COc1cc2c(cc1OC)CN(CCc1ccc(NC(=O)c3cscc3NC(=O)c3cnc4ccccc4c3)cc1)CC2 [compound 9616, Quinoline-3-carboxylic acid (4-{4-[2-(6,7-dimethoxy-3,4-dihydro-1H-isoquinolin-2-yl)-ethyl]-phenylcarbamoyl}-thiophen-3-yl)-amide]",6.95,–,–,13,142,143,185,–
"COc1cc2c(cc1OC)CN(CCc1ccc(NC(=O)c3cscc3NC(=O)c3ccc(C)nc3)cc1)CC2 [compound 9617, N-(4-{4-[2-(6,7-Dimethoxy-3,4-dihydro-1H isoquinolin-2-yl)-ethyl]-phenylcarbamoyl}-thiophen-3-yl)-6-methyl-nicotinamide]",6.69,–,–,1.5,4,15,81,–
"COc1cc2c(cc1OC)CN(CCSc1ccc(NC(=O)c3ccccc3NC(=O)c3cnc4ccccc4c3)cc1)CC2 [compound 9621, Quinoline-3-carboxylic acid (2-{4-[2-(6,7-dimethoxy-3 ,4-dihydro-1H-isoquinolin-2-yl)-ethylsulfanyl]-phenylcarbamoyl}-phenyl)-amide]",6.34,–,–,1.0,1.6,4.4,25,1.3
"COc1cc2c(cc1OC)CN(CCc1ccc(NC(=O)c3nccnc3NC(=O)c3cnc4ccccc4c3)cc1)CC2 [compound 9622, Quinoline-3-carboxylic acid (3-{4-[2-(6,7-dimethoxy-3,4-dihydro-1H-isoquinolin-2-yl)-ethyl]-phenylcarbamoyl}-pyrazin-2-yl)-amide]",6.68,–,–,1.8,15,46,79,8
"COc1cc2c(cc1OC)C(C)N(CCc1ccc(NC(=O)c3ccccc3NC(=O)c3cnc4ccccc4c3)cc1)CC2 (stereo not drawn) [compound 9625, Quinoline-3-carboxylic acid (2-{4-[2-(6,7-dimethoxy-1-methyl-3,4-dihydro-1H-isoquinolin 2-yl)-ethyl]-phenylcarbamoyl}-phenyl)-amide]",6.46,–,–,1,4,7,60,–
"COc1cc(CCN2CCc3cc(OC)c(OC)cc3C2)ccc1NC(=O)c1ccccc1NC(=O)c1cnc(C)cn1 [compound 9657, 5-Methyl-pyrazine-2-carboxylic acid (2-{4-[2-(6,7-dimethoxy-3,4-dihydro-1H-isoquinolin-2-yl)-ethyl]-2-methoxy-phenylcarbamoyl}-phenyl)-amide]",6.46,–,–,–,–,–,–,–
"COc1cc2c(cc1OC)CN(CCc1ccc(NC(=O)c3ccccc3NC(=O)c3cnccn3)c(C)c1)CC2 [compound 9658, Pyrazine-2-carboxylic acid (2-{4-[2-(6,7-dimethoxy-3,4-dihydro-1H-isoquinolin-2-yl)-ethyl]2-methyl-phenylcarbamoyl}-phenyl)-amide]",5.54,–,–,–,–,–,–,–
"COc1cc(CCN2CCc3cc(OC)c(OC)cc3C2)ccc1NC(=O)c1ccccc1NC(=O)c1cnccn1 [compound 9659, Pyrazine-2-carboxylic acid (2-{4-[2-(6,7-dimethoxy-3,4-dihydro-1H-isoquinolin-2-yl)-ethyl]-2-methoxy-phenylcarbamoyl}-phenyl)-amide]",5.86,–,–,–,–,–,–,–
"COc1cc2c(cc1OC)CN(CCc1ccc(NC(=O)c3sc4nccnc4c3NC(=O)c3cnc4ccccc4c3)cc1)CC2 [compound 9666, Quinoline-3-carboxylic acid (6-{4-[2-(6,7-dimethoxy-3,4-dihydro-1H-isoquinolin-2-yl)-ethyl]-phenylcarbamoyl}-thieno[2,3-b]pyrazin-7-yl)-amide]",5.06,–,–,–,–,–,–,–
"COc1ccc(CN(C)CCc2ccc(NC(=O)c3cc(F)c(F)cc3NC(=O)c3cnc4ccccc4c3)cc2)cc1OC [compound 9667, Quinoline-3-carboxylic acid [2-(4-{2-[(3,4-dimethoxy-benzyl)-methyl-amino]-ethyl}-phenylcarbamoyl)-4,5-difiuoro-phenyl]-amide]",7.12,–,–,–,–,–,–,–
COc1ccc(CN(C)CCc2ccc(NC(=O)c3ccc(C)cc3NC(=O)c3cnc4ccccc4c3)cc2)cc1OC [compound 9668],7.06,–,–,–,–,–,–,–
"COc1ccc(CN(CCc2ccc(NC(=O)c3ccccc3NC(=O)c3cnc4ccccc4c3)cc2)C(C)C)cc1OC [compound 9669, Quinoline-3-carboxylic acid [2-(4-{2-[(3,4-dimethoxy-benzyl)-isopropyl-amino]-ethyl}-phenylcarbamoyl)-phenyl]-amide]",6.33,–,–,–,–,–,–,–
"COc1ccc(CN(C)CCc2ccc(NC(=O)c3ccc([N+](=O)[O-])cc3NC(=O)c3cnc4ccccc4c3)cc2)cc1OC [compound 9677, Quinoline-3-carboxylic acid [2-(4-{2-[(3,4-dimethoxy-benzyl)-methyl-amino]-ethyl}-phenylcarbamoyl)-5-nitro-phenyl]-amide]",6.77,–,–,–,–,–,–,–

# From patent US6218393A, “Anthranilic acid derivatives as multi drug resistance modulators” (priority 1997, dated 2001)
